Data from patent US20160326142A1, “PYRAZOLE CARBOXAMIDE COMPOUNDS, COMPOSITIONS AND METHODS OF USE” (Genentech, Inc., priority 2012, published 2016).
pKi: −log10 of the molar value.

What follows are compounds tested against T1, ITK (Homo sapiens, UniProt Q08881) (assay: ITK enzyme assay (Caliper or LCMS peptide phosphorylation)). Settings: purified ITK (Invitrogen PV3875), 20 μM ATP, Ki by Morrison's quadratic equation.
T1 construct: purchased Invitrogen PV3875
T1 sequence (Q08881 1-620): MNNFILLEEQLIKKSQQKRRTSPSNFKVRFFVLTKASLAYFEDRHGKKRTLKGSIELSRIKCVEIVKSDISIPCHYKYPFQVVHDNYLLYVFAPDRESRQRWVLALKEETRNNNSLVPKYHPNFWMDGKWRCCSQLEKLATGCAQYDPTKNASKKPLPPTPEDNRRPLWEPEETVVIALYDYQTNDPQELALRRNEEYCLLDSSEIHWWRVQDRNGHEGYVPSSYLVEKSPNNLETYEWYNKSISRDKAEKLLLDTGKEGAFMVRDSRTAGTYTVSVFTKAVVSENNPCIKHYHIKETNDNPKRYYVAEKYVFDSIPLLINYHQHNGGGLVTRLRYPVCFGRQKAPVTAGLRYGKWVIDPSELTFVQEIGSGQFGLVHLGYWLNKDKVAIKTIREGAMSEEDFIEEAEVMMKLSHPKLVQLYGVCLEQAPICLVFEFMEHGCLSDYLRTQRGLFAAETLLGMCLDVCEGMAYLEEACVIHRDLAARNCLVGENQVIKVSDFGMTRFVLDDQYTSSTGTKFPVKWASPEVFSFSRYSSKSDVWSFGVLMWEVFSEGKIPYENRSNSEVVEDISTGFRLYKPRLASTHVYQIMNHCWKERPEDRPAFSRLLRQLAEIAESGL
Type: biochemical
Outline: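 Purified human ITK peptide phosphorylation, quenched with EDTA (50 mM final) for Caliper LabChip separation or TCA (5% v/v final) for UPLC-MS/MS MRM quantification. Ki derived via Morrison tight-binding equation, corrected for competitive inhibition using ATP concentration relative to Km,app.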

Row | Structure (SMILES) | pKi
1 | Cn1ccnc1C(c1cccs1)n1cc(NC(=O)c2n[nH]c3c2CCC(C)(C)C3)cn1 (single isomer, unassigned) [Example 114b, 6,6-dimethyl-N-(1-((1-methyl-1H-imidazol-2-yl)(thiophen-2-yl)methyl)-1H-pyrazol-4-yl)-4,5,6,7-tetrahydro-H-indazole-3-carboxamide] | 7.92
2 | CC1(C)CCc2c(C(=O)Nc3cnn(C(c4cccc(Cl)c4)C4CCOCC4)c3)n[nH]c2C1 (single isomer, unassigned) [Example 115a, N-(1-((3-chlorophenyl)(tetrahydro-2H-pyran-4-yl)methyl)-1H-pyrazol-4-yl)-6,6-dimethyl-4,5,6,7-tetrahydro-1H-indazole-3-carboxamide] | 9.70
3 | CC1(C)CCc2c(C(=O)Nc3cnn(C(c4cccc(Cl)c4)C4CCOCC4)c3)n[nH]c2C1 (single isomer, unassigned) [Example 115b, N-(1-((3-chlorophenyl)(tetrahydro-2H-pyran-4-yl)methyl)-1H-pyrazol-4-yl)-6,6-dimethyl-4,5,6,7-tetrahydro-1H-indazole-3-carboxamide] | 8.15
4 | CC12Cc3[nH]nc(C(=O)Nc4cnn(C(c5cccnc5)C5CS(=O)(=O)C5)c4)c3CC1C2 (single isomer, unassigned) [Example 116a, N-(1-((1,1-dioxidothietan-3-yl)(pyridin-3-yl)methyl)-1H-pyrazol-4-yl)-5a-methyl-1,4,4a,5,5a,6-hexahydrocyclopropa[f]indazole-3-carboxamide] | > 10.00
5 | CC12Cc3[nH]nc(C(=O)Nc4cnn(C(c5cccnc5)C5CS(=O)(=O)C5)c4)c3CC1C2 (single isomer, unassigned) [Example 116b, N-(1-((1,1-dioxidothietan-3-yl)(pyridin-3-yl)methyl)-1H-pyrazol-4-yl)-5a-methyl-1,4,4a,5,5a,6-hexahydrocyclopropa[f]indazole-3-carboxamide] | 8.70
6 | CC1(C)CCc2c(C(=O)Nc3cnn(C(c4cccnc4)C4CS(=O)(=O)C4)c3)n[nH]c2C1 (single isomer, unassigned) [Example 117a] | 9.70
7 | CC1(C)CCc2c(C(=O)Nc3cnn(C(c4cccnc4)C4CS(=O)(=O)C4)c3)n[nH]c2C1 (single isomer, unassigned) [Example 117b] | 8.22
8 | CC1(C)CCc2c(C(=O)Nc3cnn(C(c4cccc(C(C)(C)O)c4)C4CCS(=O)(=O)CC4)c3)n[nH]c2C1 (single isomer, unassigned) [Example 119a] | 10.00
9 | CC1(C)CCc2c(C(=O)Nc3cnn(C(c4cccc(C(C)(C)O)c4)C4CCS(=O)(=O)CC4)c3)n[nH]c2C1 (single isomer, unassigned) [Example 119b] | 8.40
10 | CC12Cc3[nH]nc(C(=O)Nc4cnn(C(c5ccccc5)C5CC[S+]([O-])CC5)c4)c3CC1C2 (single isomer, unassigned) [Example 120a, 5a-methyl-N-(1-((1-oxidotetrahydro-2H-thiopyran-4-yl)(phenyl)methyl)-1H-pyrazol-4-yl)-1,4,4a,5,5a,6-hexahydrocyclopropa[f]indazole-3-carboxamide] | 10.00
11 | CC12Cc3[nH]nc(C(=O)Nc4cnn(C(c5ccccc5)C5CC[S+]([O-])CC5)c4)c3CC1C2 (single isomer, unassigned) [Example 120b, 5a-methyl-N-(1-((1-oxidotetrahydro-2H-thiopyran-4-yl)(phenyl)methyl)-1H-pyrazol-4-yl)-1,4,4a,5,5a,6-hexahydrocyclopropa[f]indazole-3-carboxamide] | > 10.00
12 | CC1(C)CCc2c(C(=O)Nc3cnn(C(CCN4CC(F)(F)C4)c4ccccc4)c3)n[nH]c2C1 (single isomer, unassigned) [Example 121a, N-(1-(3-(3,3-difluoroazetidin-1-yl)-1-phenylpropyl)-1H-pyrazol-4-yl)-6,6-dimethyl-4,5,6,7-tetrahydro-1H-indazole-3-carboxamide] | 8.22
13 | CC1(C)CCc2c(C(=O)Nc3cnn(C(CCN4CC(F)(F)C4)c4ccccc4)c3)n[nH]c2C1 (single isomer, unassigned) [Example 121b, N-(1-(3-(3,3-difluoroazetidin-1-yl)-1-phenylpropyl)-1H-pyrazol-4-yl)-6,6-dimethyl-4,5,6,7-tetrahydro-1H-indazole-3-carboxamide] | 9.00
14 | CN1CCC2(CCc3c(C(=O)Nc4cnn(Cc5ccccc5)c4)n[nH]c3C2)C1=O (single isomer, unassigned) [Example 123a, N-(1-benzyl-1H-pyrazol-4-yl)-1′-methyl-2′-oxo-1,4,5,7-tetrahydrospiro[indazole-6,3′-pyrrolidine]-3-carboxamide] | 7.06
15 | CC1(C)CCc2c(C(=O)Nc3cnn(C(c4cccc(S(C)(=O)=O)c4)C4CC4)c3)n[nH]c2C1 (single isomer, unassigned) [Example 125a, N-(1-(cyclopropyl(3-(methylsulfonyl)phenyl)methyl)-1H-pyrazol-4-yl)-6,6-dimethyl-4,5,6,7-tetrahydro-1H-indazole-3-carboxamide] | 8.70
16 | CC1(C)CCc2c(C(=O)Nc3cnn(C(c4cccc(S(C)(=O)=O)c4)C4CC4)c3)n[nH]c2C1 (single isomer, unassigned) [Example 125b, N-(1-(cyclopropyl(3-(methylsulfonyl)phenyl)methyl)-1H-pyrazol-4-yl)-6,6-dimethyl-4,5,6,7-tetrahydro-1H-indazole-3-carboxamide] | 8.00
17 | CC1(C)CCc2c(C(=O)Nc3cnn(C(c4cccc(S(C)(=O)=O)c4)C4CCOC4)c3)n[nH]c2C1 (single isomer, unassigned) [Example 126a, 6,6-dimethyl-N-(1-((3-(methylsulfonyl)phenyl)(tetrahydrofuran-3-yl)methyl)-1H-pyrazol-4-yl)-4,5,6,7-tetrahydro-1H-indazole-3-carboxamide] | 8.70
18 | CC1(C)CCc2c(C(=O)Nc3cnn(C(c4cccc(S(C)(=O)=O)c4)C4CCOC4)c3)n[nH]c2C1 (single isomer, unassigned) [Example 126b, 6,6-dimethyl-N-(1-((3-(methylsulfonyl)phenyl)(tetrahydrofuran-3-yl)methyl)-1H-pyrazol-4-yl)-4,5,6,7-tetrahydro-1H-indazole-3-carboxamide] | 10.00
19 | CC1(C)CCc2c(C(=O)Nc3cnn(C(c4cccc(S(C)(=O)=O)c4)C4CCOC4)c3)n[nH]c2C1 (single isomer, unassigned) [Example 126c, 6,6-dimethyl-N-(1-((3-(methylsulfonyl)phenyl)(tetrahydrofuran-3-yl)methyl)-1H-pyrazol-4-yl)-4,5,6,7-tetrahydro-1H-indazole-3-carboxamide] | 8.40
20 | CC1(C)CCc2c(C(=O)Nc3cnn(C(c4cccc(S(C)(=O)=O)c4)C4CCOC4)c3)n[nH]c2C1 (single isomer, unassigned) [Example 126d, 6,6-dimethyl-N-(1-((3-(methylsulfonyl)phenyl)(tetrahydrofuran-3-yl)methyl)-1H-pyrazol-4-yl)-4,5,6,7-tetrahydro-1H-indazole-3-carboxamide] | 9.70
21 | CC1(C)CCc2c(C(=O)Nc3cnn(C(c4ccccc4)C4CNCCS4(=O)=O)c3)n[nH]c2C1 (single isomer, unassigned) [Example 127a] | 9.70
22 | CC1(C)CCc2c(C(=O)Nc3cnn(C(c4ccccc4)C4CNCCS4(=O)=O)c3)n[nH]c2C1 (single isomer, unassigned) [Example 127b] | 8.22
23 | CN1CC(C(c2ccccc2)n2cc(NC(=O)c3n[nH]c4c3CCC(C)(C)C4)cn2)CN(C)C1=O (single isomer, unassigned) [Example 129a, N-(1-((1,3-dimethyl-2-oxohexahydropyrimidin-5-yl)(phenyl)methyl)-1H-pyrazol-4-yl)-6,6-di methyl-4,5,6,7-tetrahydro-1H-indazole-3-carboxamide] | 9.15
24 | CN1CC(C(c2ccccc2)n2cc(NC(=O)c3n[nH]c4c3CCC(C)(C)C4)cn2)CN(C)C1=O (single isomer, unassigned) [Example 129b, N-(1-((1,3-dimethyl-2-oxohexahydropyrimidin-5-yl)(phenyl)methyl)-1H-pyrazol-4-yl)-6,6-di methyl-4,5,6,7-tetrahydro-1H-indazole-3-carboxamide] | 8.22
25 | C#CC1(C)CCc2c(C(=O)Nc3cnn(Cc4ccccc4)c3)n[nH]c2C1 (single isomer, unassigned) [Example 130a, N-(1-benzyl-1H-pyrazol-4-yl)-6-ethynyl-6-methyl-4,5,6,7-tetrahydro-1H-indazole-3-carboxamide] | 7.60
26 | C#CC1(C)CCc2c(C(=O)Nc3cnn(Cc4ccccc4)c3)n[nH]c2C1 (single isomer, unassigned) [Example 130b, N-(1-benzyl-1H-pyrazol-4-yl)-6-ethynyl-6-methyl-4,5,6,7-tetrahydro-1H-indazole-3-carboxamide] | 8.70
27 | CN1CCN(CC(c2ccccc2)n2cc(NC(=O)c3n[nH]c4c3CCC(C)(C)C4)cn2)C1=O (single isomer, unassigned) [Example 131a, 6,6-dimethyl-N-(1-(2-(3-methyl-2-oxoimidazolidin-1-yl)-1-phenylethyl)-1H-pyrazol-4-yl)-4,5,6,7-tetrahydro-1H-indazole-3-carboxamide] | 9.00
